{"source": "EPA's ToxValDB 9.5 (doi:10.2903/j.efsa.2011.2020)", "key": {"Typhlodromus pyri": {"system": "Typhlodromus pyri", "assay": "LR50; higher = less toxic", "details": "not reported; mortality"}, "Aphidius rhopalosiphi": {"system": "Aphidius rhopalosiphi", "assay": "LR50; higher = less toxic", "details": "not reported; mortality"}, "Coturnix japonica": {"system": "Coturnix japonica", "details": "acute, oral, mortality"}, "Oncorhynchus mykiss": {"system": "Oncorhynchus mykiss", "details": "acute; duration: 96 hours; mortality"}, "Rattus norvegicus": {"system": "Rattus norvegicus", "details": "for LD50: acute, mortality"}, "Apis mellifera": {"system": "Apis mellifera", "details": "acute; dermal; mortality"}}}
{"smiles": "NC(=O)Cc1cccc2ccccc12", "note": "[1-Naphthaleneacetamide]", "values": [{"measurement": "LR50", "setting": "Typhlodromus pyri", "result": "> 40", "unit": "g/ha"}, {"measurement": "LR50", "setting": "Aphidius rhopalosiphi", "result": "> 40", "unit": "g/ha"}, {"measurement": "LC50", "setting": "Coturnix japonica; diet", "result": 4370, "unit": "mg/kg-day"}, {"measurement": "LD50", "setting": "Coturnix japonica", "result": "> 2000", "unit": "mg/kg-day"}, {"measurement": "LC50", "setting": "Oncorhynchus mykiss", "result": 44, "unit": "µg/mL"}, {"measurement": "LD50", "setting": "Mus musculus; acute, oral, F, mortality", "result": 1930, "unit": "mg/kg-day"}, {"measurement": "NOAEL", "setting": "Mus musculus; chronic, duration: 18 months, other", "result": 195, "unit": "mg/kg-day"}, {"measurement": "LD50", "setting": "Rattus norvegicus; oral, M", "result": 1660, "unit": "mg/kg-day"}, {"measurement": "LD50", "setting": "Rattus norvegicus; oral", "result": "> 5050", "unit": "mg/kg-day"}, {"measurement": "NOAEL", "setting": "Rattus norvegicus; chronic, duration: 2 years, organ weight", "result": 43.8, "unit": "mg/kg-day"}, {"measurement": "NOAEL", "setting": "Rattus norvegicus; developmental, development", "result": 15, "unit": "mg/kg-day"}, {"measurement": "NOAEL", "setting": "Rattus norvegicus; subchronic, duration: 90 days, oral, hematological", "result": 10, "unit": "mg/kg-day"}, {"measurement": "NOAEL", "setting": "Rattus norvegicus; subchronic, duration: 90 days, oral, organ weight", "result": 5, "unit": "mg/kg-day"}, {"measurement": "LD50", "setting": "Apis mellifera", "result": "> 100", "unit": "µg/piece"}]}
